Assays:
Assay type in all cases: cell-based
[1] = test system: normal human skin fibroblasts HSF; test: LDH cytotoxicity assay, skin fibroblasts; conditions: 24 h; for Effect on death cells in the culture (protective properties, LDH): 10–100 μmol dm^−3
Protocol: Additionally, the influence of compounds on normal human skin fibroblast primary culture (HSF) was assessed. HSF cells were exposed to compounds (10–100 μmol dm^−3) for 24 h and the level of lactic dehydrogenase (LDH) released from the damaged cells was measured (LDH method). […] Only compound 2c in all tested concentrations and 2b in the concentration 100 μmol dm^−3 were highly toxic for skin fibroblasts. […] This may indicate protective properties of the compounds.
(§1) Human non-small cell lung cancer A549 (Cat. No. 86012804), human colon adenocarcinoma HT-29 (Cat. No. 91072201), rat glioma C6 (Cat. No. 92090409) cell lines were obtained from the PHE Culture Collections (Public Health England Culture Collections, Porton Down, Salisbury, UK). Primary culture of normal human skin fibroblasts (HSF) was obtained by the outgrowth technique from skin explants of young persons in our laboratory. The cells were kept in the following culture media purchased from Sigma (Sigma Chemicals, St. Louis, MO, USA): A549—3:1 mixture of DMEM and Nutrient mixture F-12 Ham; C6 and HSF—DMEM, HT-29—1:1 mixture of DMEM and Nutrient mixture F-12 Ham. All media were supplemented with 10 % FBS (Sigma), penicillin (100 U cm^−3, Sigma) and streptomycin (100 μg cm^−3, Sigma). The cultures were kept at 37 °C in a humidified atmosphere of 95 % air and 5 % CO2.
Skin fibroblasts HSF were plated on 96-well microplates at a density of 1 × 10^5 cells cm^−3. The following day, the culture medium was removed and the cells exposed to serial dilutions of compounds (10, 25, 50, and 100 μmol dm^−3) diluted in a fresh culture medium with a reduced amount of FBS (2 %). Cytotoxicity was detected after 24 h with the use In Vitro Toxicology Assay Kit, Lactic Dehydrogenase based (Sigma). The assay is based on the reduction of NAD by the action of lactic dehydrogenase (LDH) released from damaged cells. The resulting NADH is utilized in the stoichiometric conversion of a tetrazolium dye. The resulting coloured compound is measured spectrophotometrically. The test was carried out according to the kit procedure. The colour product was quantified spectrophotometrically at 450 nm wavelength using an Elx800 microplate reader.

[2] = test system: human non-small cell lung cancer A549; test: MTT proliferation assay, A549; conditions: A549 cells, 96 h
Protocol: (§2) The anticancer effect of compounds was tested in non-small cell lung cancer A549, colon carcinoma HT-29, and glioma C6 cells. The cells were exposed to either culture medium as the control culture or the compounds in concentrations of 10, 25, 50, and 100 μmol dm^−3. […] Cisplatin was used as a reference drug.
as §1
(§3) Cancer cells were plated on 96-well microplates at a density of 1 × 10^4 (A549), 3 × 10^4 (HT-29), and 0.5 × 10^4 (C6) cells cm^−3. Next day, the culture medium was removed and the cells exposed to serial dilutions of compounds (10, 25, 50, and 100 μmol dm^−3) in a fresh medium. Cell proliferation was assessed after 96 h using the MTT method in which the yellow tetrazolium salt (MTT) is metabolized by viable cells to purple formazan crystals. The cancer cells were incubated for 3–4 h with MTT solution (5 mg cm^−3). Formazan crystals were solubilized overnight in the SDS buffer (10 % SDS in 0.01 mol dm^−3 HCl) and the product quantified spectrophotometrically by measuring absorbance at the 570 nm wavelength using a Elx800 microplate reader (BIO-TEK, Highland Park, Winooski, Vermont, USA).

rat glioma C6 cells = test: MTT proliferation assay, glioma C6; conditions: 96 h
Protocol: as §2, §1, §3

[3] = test system: human colon carcinoma HT-29; test: MTT proliferation assay, HT-29; conditions: HT-29 cells, 96 h
Protocol: as §2, §1, §3

| SMILES | IC50 ([2]; Homo sapiens) [µM] | IC50 (rat glioma C6 cells; Rattus norvegicus) [µM] | IC50 ([3]; Homo sapiens) [µM] | Effect on death cells in the culture (protective properties, LDH) [1] | other results |
| --- | --- | --- | --- | --- | --- |
| CCCc1nn(C)c2c(=O)sc(-c3ccc(O)c(C)c3O)nc12 [2b, 5-(2,4-Dihydroxy-3-methylphenyl)-1-methyl-3-propylpyrazolo[4,3-d][1,3]thiazin-7(1H)-one] | – | – | – | – | Cytotoxicity (LDH release) ([1]; concentration 100 μmol dm^−3): highly toxic |
| CCCc1nn(C)c2c(=O)sc(-c3ccc(O)cc3O)nc12 [2a, 5-(2,4-Dihydroxyphenyl)-1-methyl-3-propylpyrazolo[4,3-d][1,3]thiazin-7(1H)-one] | 56.1 | 48.9 | – | – | – |
| CCCc1nn(C)c2c(=O)sc(-c3cc(C)c(O)cc3O)nc12 [2c, 5-(2,4-Dihydroxy-5-methylphenyl)-1-methyl-3-propylpyrazolo[4,3-d][1,3]thiazin-7(1H)-one] | – | 27.1 | 157 | – | Cytotoxicity (LDH release) ([1]; all tested concentrations (10–100 μmol dm^−3)): highly toxic |
| O=c1sc(-c2cc(Cl)c(O)cc2O)nc2nc[nH]c12 [4c, 5-(5-Chloro-2,4-dihydroxyphenyl)imidazo[4,5-d][1,3]thiazine-7(1H)-one] | 46.7 | 18.3 | 61.4 | – | – |
| CCc1cc(-c2nc3n[nH]cc3c(=O)s2)c(O)cc1O [1c, 6-(5-Ethyl-2,4-dihydroxyphenyl)pyrazolo[3,4-d][1,3]thiazin-4(2H)-one] | 32.2 | 23.1 | 20.9 | induced a decrease of death cells in the culture | – |
| CCc1cc(-c2nc3[nH]cnc3c(=O)s2)c(O)cc1O [3c, 5-(5-Ethyl-2,4-dihydroxyphenyl)imidazo[4,5-d][1,3]thiazin-7(3H)-one] | 49.8 | 8.2 | 75.4 | induced a decrease of death cells in the culture | – |
| Cc1cc(-c2nc3n[nH]cc3c(=O)s2)c(O)cc1O [1b, 6-(2,4-Dihydroxy-5-methylphenyl)pyrazolo[3,4-d][1,3]thiazin-4(2H)-one] | – | 35.8 | 109 | – | – |
| CCc1cc(-c2nc3nc[nH]c3c(=O)s2)c(O)cc1O [4b, 5-(5-Ethyl-2,4-dihydroxyphenyl)imidazo[4,5-d][1,3]thiazine-7(1H)-one] | – | 89.7 | – | – | – |
| Cc1c(O)ccc(-c2nc3n[nH]cc3c(=O)s2)c1O [1a, 6-(2,4-Dihydroxy-3-methylphenyl)pyrazolo[3,4-d][1,3]thiazin-4(2H)-one] | 9.2 | 17.2 | 102 | induced a decrease of death cells in the culture | – |
| N.N.[Cl][Pt][Cl] [cisplatin, reference compound] | – | – | – | – | IC50 [3]: 6 µM; IC50 [2]: 4.3 µM; IC50 (rat glioma C6 cells): 0.4 µM |
| Cc1c(O)ccc(-c2nc3[nH]cnc3c(=O)s2)c1O [3a, 5-(2,4-Dihydroxy-3-methylphenyl)imidazo[4,5-d][1,3]thiazin-7(3H)-one] | 48.8 | 33.1 | – | induced a decrease of death cells in the culture | – |
| CCCc1nn(C)c2c(=O)sc(-c3cc(CC)c(O)cc3O)nc12 [2d, 5-(5-Ethyl-2,4-dihydroxyphenyl)-1-methyl-3-propylpyrazolo[4,3-d][1,3]thiazin-7(1H)-one] | 35 | 32.2 | – | – | – |
| CCCc1nn(C)c2c(=O)sc(-c3cc(Cl)c(O)cc3O)nc12 [2e, 5-(5-Chloro-2,4-dihydroxyphenyl)-1-methyl-3-propylpyrazolo[4,3-d][1,3]thiazin-7(1H)-one] | – | 31.8 | – | – | – |
| Cc1cc(-c2nc3[nH]cnc3c(=O)s2)c(O)cc1O [3b, 5-(2,4-Dihydroxy-5-methylphenyl)imidazo[4,5-d][1,3]thiazin-7(3H)-one] | – | – | – | induced a decrease of death cells in the culture | – |
| O=c1sc(-c2cc(Cl)c(O)cc2O)nc2[nH]cnc12 [3d, 5-(5-Chloro-2,4-dihydroxyphenyl)imidazo[4,5-d][1,3]thiazin-7(3H)-one] | – | 53.5 | – | – | – |
| Cc1cc(-c2nc3[nH]cnc3c(=O)s2)c(O)cc1O [4a, 5-(2,4-Dihydroxy-5-methylphenyl)imidazo[4,5-d][1,3]thiazin-7(1H)-one] | – | – | – | induced a decrease of death cells in the culture | – |
| COc1c(O)ccc(-c2nc3n[nH]cc3c(=O)s2)c1O [1e, 6-(2,4-Dihydroxy-3-methoxyphenyl)pyrazolo[3,4-d][1,3]thiazin-4(2H)-one] | – | 101 | – | – | – |
